Experimental data: a melting point compilation (Tetko et al.; mined from patent text by program, amines drawn as free bases though some values may be those of a salt)

With `CC(C)c1nc2c(N)nc3ccccc3c2s1` as the molecule, how does the melting point read?
The melting point was 163 to 165 °C.

Which melting point does the source give for `COc1ccc(CCNC(=O)C2=C(C(=O)Nc3cc(OC4CCCC4)c(Cl)cc3F)CCCC2)cc1OC` here?
The melting point was 159 to 161 °C.

For `CCC(=O)NCC[C@@H]1CCc2cc(Br)c(O)cc21`, which melting point is on record?
The melting point was 146 to 148 °C.

Which melting point does the source give for `COc1ccccc1C(=O)c1cccc(C(=O)O)c1` here?
Its melting point is 170 to 172 °C.

Which melting point does the source give for `CC(=O)N1N=C(c2ccncc2)OC1c1ccc(Cl)c(Cl)c1` (stereo not drawn) here?
Its melting point is 101 to 104 °C.

Which melting point does the source give for `Cc1ccc(-c2ccc3c(c2)C=C(C(=O)Nc2ccc(CN(C)C4CCOCC4)cc2)CCO3)cc1` here?
The melting point was 162 to 163 °C.

For `O=C(CCc1ccncc1)c1c(O)c2cccnc2n(-c2ccccc2)c1=O`, which melting point is on record?
The melting point was 206 to 208 °C.

Which melting point does the source give for `N#Cc1cc(F)c(N)cc1Oc1ccc2ccccc2c1` here?
Its melting point is 89 °C.

Which melting point does the source give for `O=C(Nc1nccs1)c1ccc(CN2C(=O)C3(COc4cc5c(cc43)CCO5)c3ccccc32)cc1` (stereo not drawn) here?
The melting point was over 250 °C.

For `Cc1ccc(NC(=O)c2ccc(CN3CCCCC3)c(C(F)(F)F)c2)cc1-c1ccc2cnncc2c1`, which melting point is on record?
The melting point was 175 to 177 °C.

For `CC(=O)N(CCCCCC(=O)O)C(c1ccccc1)c1ccccc1`, which melting point is on record?
Its melting point is 119 to 120 °C.

With `C=C(C)OC1OC(n2cc(C)c(=O)n(CC(=O)c3ccccc3)c2=O)CC1OC(=O)c1ccccc1` (stereo not drawn) as the molecule, how does the melting point read?
The melting point was 112 to 113 °C.

For `COc1cc(C(=O)C#CC(=O)O)cc(OC)c1OC`, which melting point is on record?
Its melting point is 130 to 132 °C.

Which melting point does the source give for `COCCOc1cc(Oc2ccccc2)cnc1Nc1nccs1` here?
Its melting point is 141 °C.

For `O=CC(=Cc1ccc([N+](=O)[O-])s1)c1ccc(Br)cc1`, which melting point is on record?
Its melting point is 105 to 108 °C.

Which melting point does the source give for `CCN(CC)CCOc1ccc(Nc2ncc3c(n2)N(C2CCCC2)C(=O)NC3)cc1C` here?
The melting point was 175 to 177 °C.

For `O=C1/C(=C/c2c[nH]c3ncc(Cl)cc23)N=C(Oc2ccccc2)N1c1ccccc1`, which melting point is on record?
The melting point was 287 °C.

For `CS(=O)(=O)c1ccc(-c2cnn(CC(F)(F)F)c(=O)c2Cl)cc1`, which melting point is on record?
The melting point was 221 to 222 °C.

Which melting point does the source give for `CCOC(=O)c1ccc(Br)c(OCC)c1N(CC)S(C)(=O)=O` here?
The melting point was 43 to 45 °C.

For `O=[N+]([O-])CS(=O)(=O)c1ccccc1C(F)(F)F`, which melting point is on record?
The melting point was 80 °C.

Which melting point does the source give for `CCNC(=O)[C@@H]1C[C@H](SCc2ccc(OC)cc2)CN1C(=O)OC(C)(C)C` here?
The melting point was 92 to 94 °C.

For `Cc1c(F)c(N)c(Cl)c2c1c(=O)c(C(=O)O)cn2-c1cc(N)c(F)cc1F`, which melting point is on record?
Its melting point is over 280 °C.

For `CC(C)(C)c1cc(CCc2ccccc2NC(=O)NC2CCC(C(C)(C)C)CC2)cc(C(C)(C)C)c1O` (stereo not drawn), which melting point is on record?
Its melting point is 206 to 208 °C.

For `Cn1nnc2ccc(C(O)c3ccccc3)cc21` (stereo not drawn), which melting point is on record?
The melting point was 145 °C.

With `CCCCN(CCCC)c1ccc(C=CC2=C(C#N)C(=C(C#N)C#N)OC2(C)C(F)(F)F)c(OC)c1` (stereo not drawn) as the molecule, how does the melting point read?
Its melting point is 211 to 213 °C.

Which melting point does the source give for `NNc1nccc2nc(-c3ccccc3)nn12` here?
Its melting point is 216 to 218 °C.

With `CC(C)=CCN1Cc2c(Cl)ccc3[nH]c(=S)n(c23)C[C@@H]1C` as the molecule, how does the melting point read?
The melting point was 160 °C.

With `COc1ccc(Nc2ccnc3nc(CO)ccc23)cc1` as the molecule, how does the melting point read?
The melting point was 275 to 281 °C.

With `CS(=O)(=O)c1ccc(-c2cnn(CC(F)(F)F)c(=O)c2NCC2CC2)cc1` as the molecule, how does the melting point read?
Its melting point is 145 to 146 °C.

With `CC(N)c1ccc(NS(C)(=O)=O)c(Sc2ccc(F)cc2F)c1` (stereo not drawn) as the molecule, how does the melting point read?
Its melting point is 165 to 166 °C.

With `CCNc1ccc(NC(C)=O)c(C)c1` as the molecule, how does the melting point read?
The melting point was 102 to 103 °C.

For `COc1ccc2c(c1)CCc1cc(Nc3ccccc3N)ccc1C2=O`, which melting point is on record?
The melting point was 200 °C.

For `O=c1[nH]c2ccccc2c2c(CCC3CCNCC3)n(-c3ccccc3)nc12`, which melting point is on record?
The melting point was 250 to 252 °C.

Which melting point does the source give for `Cc1ccc(C(=O)Nc2ccc(CN3CCCC3)c(C(F)(F)F)c2)cc1Br` here?
The melting point was 168 to 170 °C.

For `O=c1nc(-c2ccnc(-c3ccccc3)c2)sc2ccccc12`, which melting point is on record?
The melting point was 163 °C.

With `c1ccc2c(c1)N=C(C1CCCCC1)c1cccc3c1N2CC3` as the molecule, how does the melting point read?
Its melting point is 104 to 106 °C.

Which melting point does the source give for `Oc1c(-c2ccccc2)cc(C2c3ccccc3-c3ccccc32)cc1-c1ccccc1` here?
The melting point was 144 to 145 °C.

With `COc1ccc2c(c1)C=Cc1cc(C)ccc1C2c1cn(-c2ccnc(N(C)CC(=O)Nc3nc(CC(=O)O)cs3)n2)c(=O)[nH]c1=O` (stereo not drawn) as the molecule, how does the melting point read?
Its melting point is 186 °C.
